Each structure is given as a SMILES string. Activity calls are given as the source filed them.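 How the source made its calls: active means compounds that disrupt early egg division and make hatched embryos spin fast in place instead of swimming forward; inactive means the rest.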

The first assay deals with sea urchin embryo, cleavage alteration, microscopy. The assay is described as follows: sea urchin embryo cleavage alteration, tubulin destabilizer project, whole organism, microscopy (AID 351).
Settings: not given
As to `COc1cc2c(c(OC)c1OC)-c1ccc(OC)c(=O)cc1C(NC(C)=O)CC2` (configuration not stated), the threshold concentration was 50000 nM.

In the case of `Nc1ccccc1-c1nnc(Nc2ccc3c(c2)OCCO3)o1`, the threshold concentration is 1 nM.

Consider `COc1ccc(-c2c(-c3ccccc3)noc2N)cc1OC`, for which the threshold concentration is 500 nM.

On to `COc1ccc(-c2nnc(-c3ccc(OC)c(OC)c3)o2)cc1OC`, for which the threshold concentration was 500 nM.

Take `Cc1ccc(Nc2nc(-c3c(C)nc4sccn34)cs2)cc1`: the threshold concentration is 5 nM.

In the case of `Nc1cn[nH]c1-c1nc(-c2cccc(F)c2)n[nH]1`, the threshold concentration is 500 nM.

Regarding `O=C(Nc1ccncc1)C(=O)c1cn(Cc2ccc(Cl)cc2)c2ccccc12`, the threshold concentration is 10 nM.

As for `Nc1csnc1-c1nnc(Nc2ccc(Cl)cc2)o1`, the threshold concentration was 200 nM.

Consider `O=C(Nc1ccc2c(c1)OCO2)C(=O)c1cn(Cc2ccc(Cl)cc2)c2ccccc12`, for which the threshold concentration was 50 nM.

Test system in the next assay: not listed separately
The description is as above. The settings on record: sea urchin embryo, cleavage alteration, microscopy.
Take `COc1ccc(-c2nc(C)n3ccc4cc(OC)c(OC)cc4c23)cc1OC`: the outcome was “inactive; up to 10 µM”.

In the case of `O=C(Nc1cccc(F)c1)C(=O)c1cn(Cc2ccc(Cl)cc2)c2ccccc12`, the outcome was “inactive; up to 5 mM”.

Take `COc1ccc(C(=O)c2c(N)nc3n2CCC3)cc1OC`: the outcome was “inactive; up to 5 mM”.

In the case of `CC(=O)OC1C(=O)C2C(O)CC3OCC3(OC(C)=O)C2C(OC(=O)c2ccccc2)C2(O)CC(OC(=O)C(O)C(NCc3ccccc3)c3ccccc3)C(C)=C1C2(C)C` (configuration not stated), the outcome was “inactive; up to 50 µM”.

`c1cncc(CNc2cn[nH]c2-c2nnc(Nc3ccc4c(c3)OCCO4)o2)c1`: the outcome was “inactive; up to 10 µM”.

In the case of `Nc1nonc1-c1cccnc1`, the outcome was “inactive; up to 100 mM”.

As for `O=C(Nc1ccc(F)cc1)C(=O)c1cn(Cc2ccc(Cl)cc2)c2ccccc12`, the outcome is “inactive; up to 5 mM”.

Regarding `O=C(C(=O)c1ccc2c(c1)OCO2)c1ccc2c(c1)OCO2`, the outcome was “inactive; up to 2 mM”.

Consider `O=C(Nc1cccc(Cl)c1)C(=O)c1cn(Cc2ccc(Cl)cc2)c2ccccc12`, for which the outcome was “inactive; up to 5 mM”.

With `Cc1ccc(Nc2nc(-c3c(C)nc4ccccn34)cs2)c(C)c1`, the outcome was “inactive; up to 5 mM”.

Regarding `NC(=O)c1nscc1NCc1cccnc1`, the outcome was “inactive; up to 50 µM”.

Turning to `COc1ccc(CNc2ccccc2-c2nn[nH]n2)cc1OC`, the outcome is “inactive; up to 20 mM”.

Regarding `CCOc1cc2c(cc1OCC)C(c1cc(OC)c(O)c(OC)c1)NCC2` (configuration not stated), the outcome is “inactive; up to 50 µM”.

`COc1ccc(Cc2nn[nH]n2)cc1OC`: the outcome is “inactive; up to 50 µM”.

`COc1ccc(-c2oc(=O)oc2-c2ccc(OC)c(OC)c2)cc1OC`: the outcome was “inactive; up to 5 mM”.

As for `COc1ccc2[nH]cc(CCNC(=O)C(F)(F)F)c2c1`, the outcome was “inactive; up to 50 µM”.

Regarding `Clc1ccc(-c2[nH]c(-c3cccc(C#Cc4ccccc4)c3)nc2-c2ccccc2)cc1`, the outcome is “inactive; up to 5 mM”.

For the compound `COc1cc(-c2nc(-c3ccncc3)no2)cc(OC)c1OC`, the outcome was “inactive; up to 10 µM”.

Regarding `O=C(Nc1ccc(Br)cc1)C(=O)c1cn(Cc2ccc(Cl)cc2)c2ccccc12`, the outcome is “inactive; up to 5 mM”.

Consider `NC(=O)C(=O)c1cn(Cc2ccc(Cl)cc2Cl)c2ccccc12`, for which the outcome is “inactive; up to 10 µM”.

For `O=C(Nc1cccnc1Cl)C(=O)c1cn(Cc2ccc(Cl)cc2)c2ccccc12`, the outcome is “inactive; up to 2.5 mM”.

Regarding `COC(=O)c1cc(=O)c(O)c2c(O)c(O)c(OC)cc2c1`, the outcome was “inactive; up to 20 mM”.

For the compound `COc1ccc(/C=C(/C(=O)O)c2cc(OC)c(OC)c(OC)c2)cc1O`, the outcome was “inactive; up to 10 mM”.

Take `Brc1ccc(-c2n[nH]c(-c3[nH]ncc3NCc3ccncc3)n2)cc1`: the outcome is “inactive; up to 20 mM”.

As for `c1cncc(CNc2cn[nH]c2-c2nnc(Nc3ccc4c(c3)OCO4)o2)c1`, the outcome was “inactive; up to 10 µM”.

`Nc1nc2ccccc2cc1-c1nnc(Nc2ccc3c(c2)OCO3)o1`: the outcome is “inactive; up to 2 mM”.

Regarding `Brc1cccc(-c2n[nH]c(-c3[nH]ncc3NCc3ccc4c(c3)OCO4)n2)c1`, the outcome was “inactive; up to 5 mM”.

For `COc1ccc(-c2nn[nH]n2)cc1OC`, the outcome was “inactive; up to 100 µM”.

In the case of `COc1ccc(-c2csc(Nc3ccccc3OC)n2)cc1Br`, the outcome is “inactive; up to 5 mM”.

Take `COc1cc(C(=O)NCCc2c(C)[nH]c3ccc(OC(F)(F)F)cc23)cc(OC)c1OC`: the outcome is “inactive; up to 50 µM”.

As to `COc1cccc(NC(=O)C(=O)c2c[nH]c3ccccc23)c1`, the outcome was “inactive; up to 5 mM”.

`O=C(Nc1cccc(C(F)(F)F)c1)c1nscc1NCc1ccc2c(c1)OCO2`: the outcome is “inactive; up to 5 µM”.

For the compound `Cc1nc2ccccn2c1-c1csc(Nc2ccc(Br)cc2Br)n1`, the outcome was “inactive; up to 5 mM”.

Take `CCOc1ccc(C2=C3c4cc(OCC)c(OCC)cc4CCN3C(=O)C2=O)cc1OCC`: the outcome is “inactive; up to 50 µM”.

For the compound `COc1cc(OC)c2c(c1)OC(c1ccc(OC)c(OC)c1)C(O)C2=O` (configuration not stated), the outcome is “inactive; up to 10 µM”.

`Nc1cc2c(cc1C(=O)c1ccccc1)OCCO2`: the outcome was “inactive; up to 5 mM”.

For the compound `NC(=O)C(=O)c1cn(Cc2ccc(F)cc2)c2ccccc12`, the outcome is “inactive; up to 50 µM”.

On to `Nc1[nH]ncc1-c1nnc(Nc2ccc3c(c2)OCO3)o1`, for which the outcome was “inactive; up to 20 mM”.

As to `Cc1[nH]c2ccc(OC(F)(F)F)cc2c1CCN1C(=O)C2CCCCC2C1=O` (configuration not stated), the outcome is “inactive; up to 10 µM”.

`COc1ccc(C2=NOC3C4COC(O4)C(=O)C23)cc1` (configuration not stated): the outcome was “inactive; up to 5 mM”.

In the case of `COc1cc(N)c(C(O)c2nccc3cc(OC)c(OC)cc23)cc1OC` (configuration not stated), the outcome was “inactive; up to 50 µM”.

For `COc1cc(-c2nnc(Nc3ccc4c(c3)OCO4)o2)cc(OC)c1OC`, the outcome was “inactive; up to 5 µM”.

For the compound `O=C1c2c(O)cc(O)cc2OC(c2ccc(O)c(O)c2)C1O` (configuration not stated), the outcome was “inactive; up to 50 µM”.

`COc1ccc2[nH]c(C)c(CCNC(=O)c3ccc(OC)c(OC)c3)c2c1`: the outcome was “inactive; up to 50 µM”.

In the case of `CCN(CC)C(=O)C(=O)c1cn(Cc2ccc(F)cc2)c2ccccc12`, the outcome was “inactive; up to 50 µM”.

On to `Cc1onc(-c2ccccc2Cl)c1C(=O)Nc1cccnc1`, for which the outcome is “inactive; up to 50 µM”.

With `CCOc1ccc(-c2cn[nH]c2N)cc1OCC`, the outcome is “inactive; up to 40 mM”.

For `Cn1cnc(NCc2cccnc2)c1-c1nnc(Nc2ccc3c(c2)OCCO3)o1`, the outcome was “inactive; up to 2.5 µM”.

For the compound `CCOc1cc(CNc2cccc3[nH]c(C)nc23)ccc1OC`, the outcome is “inactive; up to 50 µM”.

As for `COc1cc2ccnc(-c3c[nH]c4cc(OC)c(OC)cc34)c2cc1OC`, the outcome is “inactive; up to 10 µM”.

For `COC(=O)c1ccccc1NC(=O)Cn1nnc(-c2ccc(OC)cc2)n1`, the outcome was “inactive; up to 5 mM”.

For `O=c1c(O)c(-c2ccc(O)c(O)c2)oc2cc(O)cc(O)c12`, the outcome is “inactive; up to 100 µM”.

On to `O=C(Nc1cccc(C(F)(F)F)c1)c1nscc1NCc1ccncc1`, for which the outcome was “inactive; up to 1 µM”.

With `CS(=O)(=O)c1ccc(Nc2nnc(-c3ccccc3N)o2)cc1`, the outcome is “inactive; up to 5 mM”.

Regarding `c1cc(-c2nc(-c3ccc4c(c3)OCO4)no2)ccn1`, the outcome is “inactive; up to 50 µM”.

For the compound `Nc1cn[nH]c1-c1nc(-c2ccc(C(F)(F)F)cc2)n[nH]1`, the outcome was “inactive; up to 50 mM”.

Consider `CC(=O)Nc1ccccc1-c1cc(C)c2ccccc2n1`, for which the outcome is “inactive; up to 50 µM”.

Regarding `O=C(Nc1ccc(C(F)(F)F)cc1)C(=O)c1cn(Cc2ccc(Cl)cc2)c2ccccc12`, the outcome is “inactive; up to 0.5 µM”.

In the case of `c1cnc(-c2nc(-c3ccc4c(c3)OCO4)no2)cn1`, the outcome was “inactive; up to 5 µM”.

For the compound `O=C(Nc1cccc(C(F)(F)F)c1)C(=O)c1cn(Cc2ccc(Cl)cc2)c2ccccc12`, the outcome is “inactive; up to 5 mM”.

Consider `COc1ccc2[nH]c(C(=O)O)c(CCNC(C)=O)c2c1`, for which the outcome was “inactive; up to 50 µM”.

`O=C(Nc1ccc(Cl)cc1)C(=O)c1cn(Cc2ccc(Cl)cc2)c2ccccc12`: the outcome is “inactive; up to 5 mM”.

Consider `COc1ccc(Nc2nc(-c3ccc(OC)c(OC)c3)cs2)cc1`, for which the outcome was “inactive; up to 50 µM”.

In the case of `COc1ccc2[nH]cc(CCN3C(=O)OC(C)(C)C3(C)O)c2c1` (configuration not stated), the outcome is “inactive; up to 10 µM”.

Regarding `CCOc1cc2c(cc1OCC)C(c1cc(OC)c(OC)c(OC)c1)NCC2` (configuration not stated), the outcome was “inactive; up to 50 µM”.

For `Nc1nonc1-c1nc2ccccc2n1Cc1cccc(F)c1`, the outcome is “inactive; up to 1 mM”.

In the case of `COc1ccc(-c2nc(Nc3nc(C)cc(C)n3)n[nH]2)cc1OC`, the outcome was “inactive; up to 10 µM”.

Regarding `O=C(Nc1ccc(OC(F)(F)F)cc1)C(=O)c1cn(Cc2ccc(Cl)cc2)c2ccccc12`, the outcome was “inactive; up to 1 µM”.

As to `Nc1csnc1-c1nnc(Nc2ccc3c(c2)OCO3)o1`, the outcome was “inactive; up to 5 µM”.

As to `O=C(CC1(O)C(=O)N(Cc2ccc(F)cc2)c2ccccc21)c1ccc2c(c1)OCO2` (configuration not stated), the outcome is “inactive; up to 2.5 µM”.

For `Nc1csnc1C(=O)Nc1cccc(C(F)(F)F)c1`, the outcome was “inactive; up to 5 µM”.

For `NC(=O)CCNCc1cccnc1`, the outcome is “inactive; up to 10 µM”.

As to `NC(=O)c1nscc1NCc1ccncc1`, the outcome is “inactive; up to 5 µM”.

Consider `COc1ccc2[nH]cc(CCN)c2c1`, for which the outcome is “inactive; up to 50 µM”.

Consider `Cc1[nH]c2ccc(OC(F)(F)F)cc2c1CCNC(=O)Cc1ccc(Cl)cc1`, for which the outcome is “inactive; up to 10 µM”.

As for `COc1ccc2[nH]c(C)c(CCN3C(=O)C4CCCCC4C3=O)c2c1` (configuration not stated), the outcome is “inactive; up to 50 µM”.

Turning to `COc1ccc(Cc2nc(-c3nonc3N)no2)cc1OC`, the outcome was “inactive; up to 100 mM”.

As for `COc1ccc2[nH]cc(CCNC(C)=O)c2c1`, the outcome was “inactive; up to 50 µM”.
